# Experimental data: publication PMC2605521 (Journal of medicinal chemistry, 2008)
# Entries after “also recorded” stand apart in the source; their conditions may differ. Where two headings read alike, the source gives them in different places.
# Legend:
# μ-receptors [1] = target: T1, μ-receptors (Homo sapiens, UniProt P35372); experiment: biochemical; type: biochemical
# δ receptors = δ receptors (Homo sapiens, UniProt P41143); experiment: [35S]GTP-γ-S functional assay, δ-antagonism; type: biochemical
# Sequence of δ receptors (P41143 whole entry): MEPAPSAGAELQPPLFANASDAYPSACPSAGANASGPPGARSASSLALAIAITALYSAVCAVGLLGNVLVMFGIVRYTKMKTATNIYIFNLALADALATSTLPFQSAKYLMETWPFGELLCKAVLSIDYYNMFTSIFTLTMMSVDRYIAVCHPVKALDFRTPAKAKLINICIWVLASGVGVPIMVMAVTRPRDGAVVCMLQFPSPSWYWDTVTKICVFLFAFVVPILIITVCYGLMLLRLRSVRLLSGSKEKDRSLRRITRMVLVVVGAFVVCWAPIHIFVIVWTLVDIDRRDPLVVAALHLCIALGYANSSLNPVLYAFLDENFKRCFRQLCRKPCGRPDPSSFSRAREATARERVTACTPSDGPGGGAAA
# κ receptors = κ receptors (Homo sapiens, UniProt P41145); experiment: [35S]GTP-γ-S functional assay, κ-antagonism; type: biochemical; conditions: for κ-antagonist activity in the functional assay (in words): [35S]GTPγS assay
# Sequence of κ receptors (P41145 whole entry): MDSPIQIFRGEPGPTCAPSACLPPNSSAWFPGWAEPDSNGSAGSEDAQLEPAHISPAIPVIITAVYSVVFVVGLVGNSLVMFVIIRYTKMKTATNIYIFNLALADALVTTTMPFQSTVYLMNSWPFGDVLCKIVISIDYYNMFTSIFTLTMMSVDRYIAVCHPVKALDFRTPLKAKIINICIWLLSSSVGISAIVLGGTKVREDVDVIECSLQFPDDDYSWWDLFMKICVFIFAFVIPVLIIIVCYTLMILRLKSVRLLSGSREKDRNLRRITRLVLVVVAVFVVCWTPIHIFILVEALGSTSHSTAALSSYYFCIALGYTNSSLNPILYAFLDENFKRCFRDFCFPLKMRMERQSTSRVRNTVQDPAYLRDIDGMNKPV
# δ-opioid receptor = δ-opioid receptor (Homo sapiens, UniProt P41143); experiment: [125I]Ioxy binding, CHO cells expressing δ-opioid receptor
# Sequence of δ-opioid receptor (P41143 whole entry): as the sequence (P41143 whole entry) above
# μ-opioid receptor [2] = target: T2, μ-opioid receptor (Homo sapiens, UniProt P35372); experiment: [125I]Ioxy binding, CHO cells expressing μ-opioid receptor; conditions: for affinity for μ-receptors (in words): compared with the N-methyl analogues 46 and 47
# T2 sequence (P35372 whole entry, species assumed): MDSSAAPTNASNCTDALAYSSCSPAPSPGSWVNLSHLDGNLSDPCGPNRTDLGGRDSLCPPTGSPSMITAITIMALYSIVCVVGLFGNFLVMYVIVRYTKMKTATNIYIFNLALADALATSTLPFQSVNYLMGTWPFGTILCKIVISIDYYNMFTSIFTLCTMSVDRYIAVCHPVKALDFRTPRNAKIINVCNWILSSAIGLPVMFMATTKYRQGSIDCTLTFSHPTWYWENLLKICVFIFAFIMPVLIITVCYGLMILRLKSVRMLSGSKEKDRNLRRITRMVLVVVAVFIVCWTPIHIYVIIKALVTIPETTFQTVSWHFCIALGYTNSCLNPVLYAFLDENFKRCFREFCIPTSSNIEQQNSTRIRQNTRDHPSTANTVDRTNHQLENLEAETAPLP
# μ-opioid receptor [3] = target: T2, μ-opioid receptor; conditions: read-out: Ki at μ-receptors; earlier work; cited from earlier work
# μ-receptors [4] = target: T1, μ-receptors; conditions: [35S]GTPγS assay; cited from earlier work
# [5] = cited from earlier work
# T1 sequence (P35372 whole entry, species assumed): as above
compound,measurement,setting,value
"Oc1ccc2c(c1)[C@@]13CCN(CCc4ccccc4)[C@@H](CC[C@H]1O2)C3 (racemic) [Compound 16, (4R*,6aS*,11bR*)-2,3,4,5,6,6a-Hexahydro-3-phenethyl-1H-4,11b-methanobenzofuro[3,2-d]azocine-10-ol]",Kb,μ-receptors [1],260 ± 79 nM
same,Kb,δ receptors,17 ± 4.2 µM
same,Kb,κ receptors,19 ± 5.2 nM
same,κ-antagonist activity in the functional assay (in words),κ receptors,moderately active κ-antagonists; also recorded: moderately potent κ-receptor antagonists
"CN1CC[C@@]23C[C@@H]1CC[C@H]2Oc1c(O)cccc13 (racemic) [Compound 20, (4R*,6aS*,11bR*)-2,3,4,5,6,6a-Hexahydro-3-methyl-1H-4,11b-methanobenzofuro[3,2-d]azocine-8-ol]",Ki,δ-opioid receptor,> 10 µM
"Oc1cccc2c1O[C@@H]1CC[C@H]3C[C@@]21CCN3CCc1ccccc1 (racemic) [Compound 24, (4R*,6aS*,11bR*)-2,3,4,5,6,6a-Hexahydro-3-phenethyl-1H-4,11b-methanobenzofuro[3,2-d]azocine-8-ol]",Kb,μ-receptors [1],77 ± 13 nM
same,μ-antagonist activity in the functional assay (in words),μ-receptors [1],weak μ-antagonist activity
same,Kb,δ receptors,8 ± 1.5 µM
same,Kb,κ receptors,21 ± 3.4 nM
same,κ-antagonist activity in the functional assay (in words),κ receptors,moderately active κ-antagonists; also recorded: moderately potent κ-receptor antagonists
"CN1C[C@@H]2Oc3c(O)cccc3[C@@]23CCC[C@@H]1C3 (racemic) [Compound 46, (3R*,6aS*,11aR*)-1,3,4,5,6,11a-Hexahydro-2-methyl-2H-3,6a-methanobenzofuro[2,3-c]azocin-10-ol]",Ki,μ-opioid receptor [2],8 ± 0.406 µM
"CN1C[C@@H]2Oc3ccc(O)cc3[C@@]23CCC[C@@H]1C3 (racemic) [Compound 47, (3R*,6aS*,11aR*)-1,3,4,5,6,11a-Hexahydro-2-methyl-2H-3,6a-methanobenzofuro [2,3-c]azocin-8-ol]",Ki,μ-opioid receptor [2],2.93 ± 0.203 µM
"Oc1cccc2c1O[C@H]1CN(CCc3ccccc3)[C@@H]3CCC[C@]21C3 (racemic) [Compound 51, (3R*,6aS*,11aR*)-1,3,4,5,6,11a-Hexahydro-2-phenethyl-2H-3,6a-methanobenzofuro [2,3-c]azocin-10-ol]",affinity for μ-receptors (in words),μ-opioid receptor [2],only slight affinity
Oc1ccc2c(c1)[C@]13CCC[C@H](C1)N(CCc1ccccc1)C[C@@H]3O2 (relative stereo) [Compound 52],affinity for μ-receptors (in words),μ-opioid receptor [2],only slight affinity
"Oc1cccc2c1O[C@H]1[C@H]3CCC[C@@]21CCN3CCc1ccccc1 (single isomer, unassigned) [(−)-N-phenethyl ortho-f isomer]",Ki,μ-opioid receptor [3],7 nM
same,potency as μ-opioid antagonist (in words),μ-receptors [4],more potent than naloxone
"Oc1cccc2c1O[C@H]1[C@@H]3CCC[C@]21CCN3CCc1ccccc1 (single isomer, unassigned) [(−)-N-phenethyl para-e isomer]",antinociceptive activity (in words),[5],morphine-like antinociceptive
